One experiment deals with T1, human H3 receptor (Homo sapiens, UniProt Q9Y5N1).
T1 construct: expressed in transfected cells
As to the kind of experiment: Human H3 radioligand binding ([3H]-N-alpha-methylhistamine, CHO cell membranes, SPA). The following applies: binding constant as letter class. The protocol:
(§1) Cell pellets were resuspended in 5 mM Tris-HCl, pH 7.5 with […] and a cocktail of protease inhibitors (Complete Protease Inhibition Tablets, Roche Diagnostics). Cells were disrupted using a polytron cell homogenizer and the suspension was centrifuged at 1000×g for 10 minutes at 4° C. The pellet was discarded and the supernatant centrifuged at 40,000×g for 30 min at 4° C. This membrane pellet was washed in membrane buffer containing 50 mM Tris-HCl, pH 7.5 with 0.6 mM EDTA, 5 mM MgCl2 and protease inhibitors, recentrifuged as above and the final pellet resuspended in membrane buffer plus 250 mM sucrose and frozen at −80° C.
(§2) Membranes were resuspended in 50 mM Tris HCl (pH 7.4), 5 mM MgCl2, 0.1% BSA. The membrane suspensions (10 μg protein per well) were incubated in a 96 well microtiter plate with [^3H]-N-alpha-methylhistamine (approximately 1 nM final concentration), test compounds at various concentrations (0.01 nM-30 μM) and scintillation proximity beads (Perkin Elmer, FlashBlueGPCR Scintillating Beads) in a final volume of 80 μl for 4 hours at room temperature, protected from light. Non-specific binding was determined in the presence of 10 μM clobenpropit. Radioligand bound to receptor, and therefore in proximity to the scintillation beads, was measured using a MicroBeta scintillation counter.

Experiment [1] has as its target T2, rat histamine H3 receptor (Rattus norvegicus, UniProt Q9QYN8).
T2 construct: encoding the entire 445-amino-acid rat histamine H3 receptor; expressed in transfected cells
As to the kind of experiment: Rat H3 radioligand binding ([3H]-N-alpha-methylhistamine, CHO-A3 cell membranes, SPA). As to the method:
as §1, with “This was engineered into the pIRES-neo3 mammalian expression vector, which was stably transfected into the CHO-A3 cell line (Euroscreen, Belgium), followed by clonal selection by limiting dilution. Cells were harvested and cell pellets were frozen (−80° C.). Cell pellets” for “Cell pellets”
as §2

Setting [2] is: Table B, binding constant as letter class, read-out: rat H3 Ki.
The mark [3] stands for this setting: Table A, binding constant as letter class, read-out: Rat H3 Ki.

Results on 30 compounds are retold here after patent US8586588B2, “Aryl pyridazinone derivatives and their use as H3 receptor ligands” (Cephalon, Inc., priority 2006, dated 2013).

For orientation: Ki means the dissociation constant of the complex between target and ligand, obtained from inhibition or displacement.

Like-named read-outs stand apart in the source and are kept apart here.

T2 sequence (Q9QYN8 whole entry): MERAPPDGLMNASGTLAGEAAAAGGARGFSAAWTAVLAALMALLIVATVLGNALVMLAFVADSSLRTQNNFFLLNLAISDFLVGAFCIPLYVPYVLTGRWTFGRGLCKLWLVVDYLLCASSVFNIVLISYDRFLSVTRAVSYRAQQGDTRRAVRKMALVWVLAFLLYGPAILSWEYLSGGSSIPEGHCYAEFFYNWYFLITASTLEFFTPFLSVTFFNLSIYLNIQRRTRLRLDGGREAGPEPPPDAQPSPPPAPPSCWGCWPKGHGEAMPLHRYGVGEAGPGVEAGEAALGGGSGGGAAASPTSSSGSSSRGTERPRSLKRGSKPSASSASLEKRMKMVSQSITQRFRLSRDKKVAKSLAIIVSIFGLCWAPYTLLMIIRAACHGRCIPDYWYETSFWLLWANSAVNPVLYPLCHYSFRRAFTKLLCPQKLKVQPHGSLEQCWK
T1 sequence (Q9Y5N1 whole entry): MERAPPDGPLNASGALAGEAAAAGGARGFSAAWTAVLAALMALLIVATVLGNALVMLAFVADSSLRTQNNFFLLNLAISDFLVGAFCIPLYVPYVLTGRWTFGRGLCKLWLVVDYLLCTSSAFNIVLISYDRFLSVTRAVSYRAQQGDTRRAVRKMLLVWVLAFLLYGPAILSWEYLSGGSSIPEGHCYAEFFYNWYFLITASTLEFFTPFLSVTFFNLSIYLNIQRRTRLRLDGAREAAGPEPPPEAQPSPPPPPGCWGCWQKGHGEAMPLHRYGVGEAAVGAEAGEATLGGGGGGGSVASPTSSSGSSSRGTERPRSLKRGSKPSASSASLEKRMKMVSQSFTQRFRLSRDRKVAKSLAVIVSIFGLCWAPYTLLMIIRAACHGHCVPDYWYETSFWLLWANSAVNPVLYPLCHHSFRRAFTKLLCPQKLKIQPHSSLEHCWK

For the compound `CC1CC(=O)NN=C1c1ccc(OCCCN2CCC[C@H]2C)cc1` (mixture of isomers) [Example 194, 5-Methyl-6-{4-[3-((R)-2-methyl-pyrrolidin-1-yl)-propoxy]-phenyl}-4,5-dihydro-2H-pyridazin-3-one], the Ki (on human H3 receptor (Table B); in experiment [1] (setting [2])) was 0.1 to 100 nM throughout.

In the case of `CC1CC(=O)NN=C1c1ccc(OCCCN2CCCCC2)cc1` (racemic) [Example 197, 5-Methyl-6-[4-(3-piperidin-1-yl-propoxy)-phenyl]-4,5-dihydro-2H-pyridazin-3-one], the Ki (at human H3 receptor (Table B); in experiment [1] (setting [2])) was 0.1 to 100 nM each time.

`CC1CC(=O)NN=C1c1ccc(OCCCN2CCCC2)cc1` (racemic) [Example 198, 5-Methyl-6-[4-(3-pyrrolidin-1-yl-propoxy)-phenyl]-4,5-dihydro-2H-pyridazin-3-one]: the Ki (on human H3 receptor (Table B); in experiment [1] (setting [2])) was 0.1 to 100 nM in each case.

For `C[C@@H]1CCCN1CCCOc1ccc(C2=NNC(=O)C3CC23)cc1` (mixture of isomers) [Example 243, 5-{4-[3-((R)-2-Methyl-pyrrolidin-1-yl)-propoxy]-phenyl}-3,4-diaza-bicyclo[4.1.0]hept-4-en-2-one], the Ki (on human H3 receptor (Table B); in experiment [1] (setting [2])) was 0.1 to 100 nM throughout.

Regarding `CC1CC(=O)NN=C1c1ccc(OCCCN2CCC[C@H]2C)cc1` (single isomer, unassigned) [Example 195], the Ki (on human H3 receptor (Table B); in experiment [1] (setting [2])) was 0.1 to 100 nM each time.

In the case of `CC1CC(=O)NN=C1c1ccc(OCCCN2CCC[C@H]2C)cc1` (single isomer, unassigned) [Example 196], the Ki (at human H3 receptor (Table B); in experiment [1] (setting [2])) was 0.1 to 100 nM throughout.

`C[C@@H]1CCCN1CCCOc1ccc(C2=NNC(=O)C3CC23)cc1` (single isomer, unassigned) [Example 246]: the Ki (on human H3 receptor (Table B); in experiment [1] (setting [2])) was 0.1 to 100 nM throughout.

Regarding `C[C@@H]1CCCN1CCCOc1ccc(C2=NNC(=O)C3CC23)cc1` (single isomer, unassigned) [Example 247], in experiment [1] (setting [2]), the Ki is 0.1 to 100 nM.

Regarding `O=C1NN=C(c2ccc(OC3CCN(C4CCC4)CC3)cc2)C2CC12` (single isomer, unassigned) [Example 248, 5-[4-(1-Cyclobutyl-piperidin-4-yloxy)-phenyl]-3,4-diaza-bicyclo[4.1.0]hept-4-en-2-one], the Ki (on human H3 receptor (Table B); in experiment [1] (setting [2])) was 0.1 to 100 nM throughout.

On to `O=C1NN=C(c2ccc(OC3CCN(C4CCC4)CC3)cc2)C2CC12` (single isomer, unassigned) [Example 249, 5-[4-(1-Cyclobutyl-piperidin-4-yloxy)-phenyl]-3,4-diaza-bicyclo[4.1.0]hept-4-en-2-one], for which the Ki (at human H3 receptor (Table B); in experiment [1] (setting [2])) was 0.1 to 100 nM throughout.

On to `C[C@@H]1CCCN1CCCOc1ccc(-c2ccc(=O)n(C)n2)cc1` [Example 1, 2-Methyl-6-{4-[3-((R)-2-methyl-pyrrolidin-1-yl)-propoxy]-phenyl}-2H-pyridazin-3-one], for which the Ki (on human H3 receptor (Table A); in experiment [1] (setting [3])) was 0.1 to 100 nM throughout.

For `Cn1nc(-c2ccc(OCCCN3CCCCC3)cc2)ccc1=O` [Example 2, 2-Methyl-6-[4-(3-piperidin-1-yl-propoxy)-phenyl]-2H-pyridazin-3-one], the Ki at human H3 receptor (Table A) lay in the range of 0.1 to 100 nM; in experiment [1] (setting [3]), 101 to 500 nM.

Turning to `CC(C)n1nc(-c2ccc(OCCCN3CCCCC3)cc2)ccc1=O` [Example 3, 2-Isopropy1-6-[4-(3-piperidin-1-yl-propoxy)-pheny1]-2H-pyridazin-3-one], the Ki (on human H3 receptor (Table A); in experiment [1] (setting [3])) was 0.1 to 100 nM in each case.

With `CC(C)N1N=C(c2ccc(OCCCN3CCCCC3)cc2)CCC1=O` [Example 4, 2-Isopropy1-6-[4-(3-piperidin-1-yl-propoxy)-phenyl]-4,5-dihydro-2H-pyridazin-3-one], the Ki (on human H3 receptor (Table A); in experiment [1] (setting [3])) was 0.1 to 100 nM in each case.

For `CC(C)n1nc(-c2ccc(OCCCN3CCC[C@H]3C)cc2)ccc1=O` [Example 5, 2-Isopropyl-6-{4-[3-((R)-2-methyl-pyrrolidin-1-yl)-propoxy]-phenyl}-2H-pyridazin-3-one], the inhibitory constant (Ki) (at human H3 receptor (Table A); in experiment [1] (setting [3])) was 0.1 to 100 nM throughout.

Consider `CCn1nc(-c2ccc(OCCCN3CCC[C@H]3C)cc2)ccc1=O` [Example 6, 2-Ethyl-6-{4-[3-((R)-2-methyl-pyrrolidin-1-yl)-propoxy]-phenyl}-2H-pyridazin-3-one], for which the Ki (on human H3 receptor (Table A); in experiment [1] (setting [3])) was 0.1 to 100 nM throughout.

Turning to `C[C@@H]1CCCN1CCCOc1ccc(-c2ccc(=O)n(C)n2)cc1F` [Example 7, 6-{3-Fluoro-4-[3-((R)-2-methyl-pyrrolidin-1-yl)-propoxy]-phenyl}-2-methyl-2H-pyridazin-3-one], the Ki (on human H3 receptor (Table A); in experiment [1] (setting [3])) was 0.1 to 100 nM each time.

As for `C[C@@H]1CCCN1CCCOc1ccc(C2=NN(Cc3ccc(Cl)cc3Cl)C(=O)CC2)cc1` [Example 8, 2-(2,4-Dichloro-benzyl)-6-{4-[3-((R)-2-methyl-pyrrolidin-1-yl)-propoxy]-phenyl}-4,5-dihydro-2H-pyridazin-3-one], the Ki (at human H3 receptor (Table A); in experiment [1] (setting [3])) was 0.1 to 100 nM in each case.

On to `C[C@@H]1CCCN1CCCOc1ccc(-c2ccc(=O)n(-c3cc(Cl)cc(Cl)c3)n2)cc1` [Example 9, 2-(3,5-Dichloro-phenyl)-6-{4-[3-((R)-2-methyl-pyrrolidin-1-yl)-propoxy]-phenyl}-2H-pyridazin-3-one], for which the Ki (on human H3 receptor (Table A); in experiment [1] (setting [3])) was 0.1 to 100 nM throughout.

Regarding `O=c1ccc(-c2ccc(OCCCN3CCCCC3)c(F)c2)nn1-c1ccccc1` [Example 10, 6-[3-Fluoro-4-(3-piperidin-1-yl-propoxy)-phenyl]-2-phenyl-2H-pyridazin-3-one], the Ki on human H3 receptor (Table A) lay within 0.1 to 100 nM; in experiment [1] (setting [3]), 101 to 500 nM.

Regarding `C[C@@H]1CCCN1CCCOc1ccc(-c2ccc(=O)[nH]n2)cc1` [Example 11, 6-{4-[3-((R)-2-Methyl-pyrrolidin-1-yl)-propoxy]-phenyl}-2H-pyridazin-3-one], the Ki (at human H3 receptor (Table A); in experiment [1] (setting [3])) was 0.1 to 100 nM throughout.

As for `C[C@@H]1CCCN1CCCOc1ccc(-c2n[nH]c(=O)c3c2CCC3)cc1` [Example 12, 4-{4-[3-((R)-2-Methyl-pyrrolidin-1-yl)-propoxy]-phenyl}-2,5,6,7-tetrahydro-cyclopenta[d]pyridazin-1-one], the Ki (at human H3 receptor (Table A); in experiment [1] (setting [3])) was 0.1 to 100 nM in each case.

As to `C[C@H](COc1ccc(-c2ccc(=O)n(C)n2)cc1)CN1CCC[C@H]1C` [Example 13, 2-Methyl-6-{4-[(S)-2-methyl-3-((R)-2-methyl-pyrrolidin-1-yl)-propoxy]-phenyl}-2H-pyridazin-3-one], the Ki (on human H3 receptor (Table A); in experiment [1] (setting [3])) was 0.1 to 100 nM each time.

On to `Cn1nc(-c2ccc(OCCCN3CCC[C@H]3CO)cc2)ccc1=O` [Example 14, 6-{4-[3-((S)-2-Hydroxymethyl-pyrrolidin-1-yl)-propoxy]-phenyl}-2-methyl-2H-pyridazin-3-one], for which the Ki in experiment [1] fell in the range of 0.1 to 100 nM.

Compound `Cn1nc(-c2ccc(OCCCN3CCC[C@@H]3CO)cc2)ccc1=O` [Example 15, 6-{4-[3-((R)-2-Hydroxymethyl-pyrrolidin-1-yl)-propoxy]-phenyl}-2-methyl-2H-pyridazin-3-one] gave a Ki in experiment [1] of 501 to 1000 nM.

For the compound `C[C@@H]1CCCN1CCCOc1ccc(C2=NN(C)C(=O)CC2)cc1` [Example 16, 2-Methyl-6-{4-[3-((R)-2-methyl-pyrrolidin-1-yl)-propoxy]-phenyl}-4,5-dihydro-2H-pyridazin-3-one], the Ki (on human H3 receptor (Table A); in experiment [1] (setting [3])) was 0.1 to 100 nM in each case.

Take `C[C@@H]1CCCN1CCCOc1ccc(C2=NN(Cc3ccccc3)C(=O)CC2)cc1` [Example 17, 2-Benzyl-6-{4-[3-((R)-2-methyl-pyrrolidin-1-yl)-propoxy]-phenyl}-4,5-dihydro-2H-pyridazin-3-one]: the Ki (on human H3 receptor (Table A); in experiment [1] (setting [3])) was 0.1 to 100 nM in each case.

At human H3 receptor (Table B), `C[C@@H]1CCCN1CCCOc1ccc(-c2n[nH]c(=O)cc2-c2ccccn2)cc1` [Example 112, 6-{4-[3-((R)-2-Methyl-pyrrolidin-1-yl)-propoxy]-phenyl}-5-pyridin-2-yl-2H-pyridazin-3-one] returned a Ki of 0.1 to 100 nM.

`C[C@@H]1CC(=O)NN=C1c1ccc(OC2CCN(C3CCC3)CC2)cc1` [Example 190, (R)-6-[4-(1-Cyclobutyl-piperidin-4-yloxy)-phenyl]-5-methyl-4,5-dihydro-2H-pyridazin-3-one] showed a Ki in experiment [1] of 0.1 to 100 nM.

In experiment [1], `C[C@H]1CC(=O)NN=C1c1ccc(OC2CCN(C3CCC3)CC2)cc1` [Example 191, (S)-6-[4-(1-Cyclobutyl-piperidin-4-yloxy)-phenyl]-5-methyl-4,5-dihydro-2H-pyridazin-3-one] registered a Ki of 0.1 to 100 nM.
